From patent publication US6703229B2, “Aryl propenal double bond reductase” (Washington State University Research Foundation, priority 2000, dated 2004)

Experiments:
[1] = molecular target: reverse transcriptase (Human immunodeficiency virus type 1 group M subtype B, UniProt P04585); conditions: cited from earlier work
[2] = system: cAMP-phosphodiesterase; conditions: cited from earlier work
[3] = system: aryl propenal double bond reductase (SEQ ID NO:2); assay: Enzyme assay of recombinant aryl propenal double bond reductase (HPLC of products); format: biochemical, Pinus taeda; conditions: for reduction of the aryl propenal substrate by the recombinant reductase: recombinant enzyme expressed from SEQ ID NO:1, in the presence of [4R]-NADPH
Procedure: Enzyme assays—Each non-radioactive assay (250 μl) consisted of buffer (50 mM Tris-HCl, pH 8.0), substrate (12.5 mM in DMSO, 10 μl), NADPH (25 mM in H2O, 10 μl), and the enzyme preparation (30 μl containing 5 mM DTT). Controls were performed using either denatured enzyme (boiled 96° C., 10 min) or in absence of enzyme. After 1 hour incubation at 30° C. with shaking, the reaction mixture was extracted with EtOAc (500 μl×2) with the EtOAc solubles combined and evaporated to dryness in vacuo. The EtOAc solubles were dissolved in CH3CN (10 μl) and then in 3% AcOH (90 μl), and subjected to reverse-phase HPLC with UV detection (280 nm).
Radioactive assays were performed in the same way as the non-radioactive assay with the following exceptions: the reaction was initiated by addition of [4S-^3H] or [4R-^3H]NADPH (25 mM in H2O, 666.7 kBq 10 μl). The EtOAc solubles were reconstituted in CH3CN/H2O and subjected to reverse-phase HPLC as described above with 0.5 ml fractions collected and an aliquot (100 μl) of each removed for scintillation counting to determine the level of incorporation of ^3H into the products.
Reversed phase HPLC separation of substrates and products—Separation of dehydrodiconiferyl alcohol (DDC), dihydrodehydrodiconiferyl alcohol (DDDC), dehydrodiconiferyl aldehyde (DDCA), dihydrodehydrodiconiferyl aldehyde (DDDCA) coniferyl alcohol (CA), dihydroconiferyl alcohol (DCA), coniferyl aldehyde (CAL), and dihydroconiferyl aldehyde (DCAL) was carried out using a reverse-phase column (Symmetry Shield RP8, 3.9×150 mm, Waters) as follows: CH3CN-3% AcOH in H2O (1:9) from 0 to 5 min, then linear gradient to 1:3 between 5 to 30 min, and finally linear gradient to 100% CH3CN over 25 min, at a flow rate of 1 ml/min.

Molecule: CC(Cc1ccc(O)c(O)c1)C(C)Cc1ccc(O)c(O)c1 (stereo not shown) [nordihydroguaiaretic acid]
- effectiveness against HIV (reverse transcriptase inhibitory activity) [1]: effective against HIV

Molecule: COc1cc(C[C@H]2COC(=O)[C@@H]2Cc2ccc(O)c(OC)c2)ccc1O [matairesinol]
- inhibition of cAMP-phosphodiesterase [2]: inhibit cAMP-phosphodiesterase

Molecule: COc1cc(/C=C/C=O)ccc1O [coniferyl aldehyde]
- reduction of the aryl propenal substrate by the recombinant reductase [3]: capable of reducing coniferyl aldehyde to dihydroconiferyl aldehyde

Molecule: (−)-trachelogenin
- effectiveness against HIV (reverse transcriptase inhibitory activity) [1]: effective against HIV

Molecule: COc1cc([C@@H]2Oc3c(OC)cc(/C=C/C=O)cc3[C@H]2CO)ccc1O [dehydrodiconiferyl aldehyde]
- reduction of the aryl propenal substrate by the recombinant reductase [3]: regiospecifically reduce the double-bond

Molecule: COc1cc(C[C@H]2C(=O)OC[C@@H]2Cc2ccc(OC)c(OC)c2)ccc1O [(−)-arctigenin]
- effectiveness against HIV (reverse transcriptase inhibitory activity) [1]: effective against HIV

B1: aryl propenal double bond reductase (SEQ ID NO:2): Pinus taeda aryl propenal double bond reductase encoded by cDNA SEQ ID NO:1, expressed in E. coli (protein)
chain: MEQRVPNRELILVAYANEGPVTDSHLNIRETKLDLGSVGKDGSSGDVAVQNLWISVDPYLRQLMKESDDGLYLPSFPLNQAIRSILVGKVVASANPAFEVGDIVSGFYQVSEYAIVPRGDLMKIDTSVVKPSDYLGLLGMPALTAWAGFIIVGEPKPGDEVFVSAAAGSVGMLVGQLAKIKSCRVVGSAGSDQKVKLLKEFGFDDAFNYKCETDLDAALSRYFPRGIDIYFDNVGGRMLEAVLNHINMKARIPLCGMISQYNQEWKQRFGVRNLLNLVGKCAKMEGFMSGQYHHRMGEFFEEMTGYIKQGKIKYKEDVKVGLDSFLEAFNSMFTGENIGKPVIYLGPPLPK
- enzymatic activity of the expressed reductase ([3]; expressed in E. coli, GST fusion removed): enzymatically active
